We go through three molecules from BindingDB's records for doi:10.1021/jm00105a061 (Zambeletti Research Laboratories, 1991).

Counter-ions that a name gives are not always drawn.

Experiment [1] in a line: Compound was evaluated for its binding affinity against opioid receptor delta subtype in guinea pig brain (minus cerebellum) using [3H]-DADLE as radioligand.
A short description of experiment [2]: Compound was evaluated for its binding affinity against Opioid receptor delta 1 subtype in guinea pig brain (minus cerebellum) using [3H]DADLE as radioligand.

By Ki is commonly meant the dissociation constant of the complex between target and ligand, obtained from inhibition or displacement. A high value points to lower affinity. Molecule `CN1CCCC1C1CCCCN1C(=O)Cc1ccc(Cl)c(Cl)c1` (stereo not drawn) [(threo)2-(3,4-Dichloro-phenyl)-1-[2-(1-methyl-pyrrolidin-2-yl)-piperidin-1-yl]-ethanone(HCl)] had an inhibitory constant (Ki) in experiment [1] above 10 µM.

In experiment [1], `O=C(Cc1ccc(O)cc1)N1CCCCC1CN1CCCC1` (stereo not drawn) had a Ki above 10 µM.

`O=C(Cc1ccc(Cl)c(Cl)c1)N1CCCCC1CN1CCCC1` (stereo not drawn) yielded a Ki in experiment [2] above 10 µM.
